Test results published in PubChem BioAssay (NCI).
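Five compound concentrations were applied to cells in 96-well plates for 48 hours; endpoints were derived by simple linear interpolation of the resulting dose-response curve. TGI is the concentration that stops growth completely.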

How the values were obtained:
Experiment in all cases: NCI anticancer screen, dose series, 48 h
[1] = system: MALME-3M melanoma
[2] = system: NCI-H226 lung
[3] = system: SNB-75 CNS
[4] = system: SK-MEL-5 melanoma
[5] = system: HT29 colon
[6] = system: HOP-92 NSCLC
[7] = system: MCF7 breast
[8] = system: NCI/ADR-RES ovarian
[9] = system: NCI-H23 lung
[10] = system: ACHN renal
[11] = system: A498 renal
[12] = system: NCI-H522 lung
[13] = system: OVCAR-4 ovarian
[14] = system: IGROV1 ovarian
[15] = system: SN12C renal
[16] = system: HL-60(TB) leukemia
[17] = system: K-562 leukemia

SMILES	TGI [1]	TGI [2]	TGI [3]	TGI [4]	TGI [5]	TGI [6]	TGI [7]	TGI [8]	TGI [9]	TGI [10]	TGI [11]	TGI [12]	TGI [13]	TGI [14]	TGI [15]	TGI [16]	TGI [17]
O=C(c1ccccc1)c1ccc2c(c1)nc1n2C(c2c(F)cccc2F)SC1 (stereo not given)	> 100 µM	> 100 µM	99 µM	27.8 µM	55.9 µM	> 100 µM	> 100 µM	> 100 µM	> 100 µM	> 100 µM	72.5 µM	> 100 µM	> 100 µM	> 100 µM	> 100 µM	–	–
Cc1nc(C)c(N2CCN(C(=O)O)CC2)c(=O)[nH]1	> 100 µM	> 100 µM	–	> 100 µM	> 100 µM	> 100 µM	> 100 µM	> 100 µM	> 100 µM	> 100 µM	> 100 µM	> 100 µM	> 100 µM	> 100 µM	> 100 µM	> 100 µM	> 100 µM
OC(Cc1ccc2ccccc2n1)(C(F)(F)Cl)C(F)(F)Cl	> 10 µM	> 10 µM	> 10 µM	> 10 µM	> 10 µM	> 10 µM	> 10 µM	> 10 µM	> 10 µM	> 10 µM	> 10 µM	> 10 µM	> 10 µM	> 10 µM	> 10 µM	–	> 10 µM
NC(=O)C(=CNC(=S)Nc1ccc(S(=O)(=O)Nc2ccccn2)cc1)C(N)=O	–	> 100 µM	> 100 µM	> 100 µM	> 100 µM	> 100 µM	> 100 µM	> 100 µM	> 100 µM	> 100 µM	> 100 µM	> 100 µM	> 100 µM	> 100 µM	> 100 µM	–	> 100 µM
COC(=O)n1c(C)c(C=O)c2ccc(OC)cc21	> 100 µM	–	> 100 µM	57.5 µM	> 100 µM	–	88.2 µM	> 100 µM	89.7 µM	> 100 µM	–	> 100 µM	> 100 µM	> 100 µM	> 100 µM	> 100 µM	> 100 µM
CCCCCCNC(=S)N/N=C(\C)c1ccccn1	16.8 µM	6.28 µM	23.9 µM	14.7 µM	19.4 µM	2.25 µM	19 µM	30.6 µM	18.8 µM	10 µM	14.4 µM	19.8 µM	34.7 µM	18.4 µM	14 µM	–	–
C[C@@H]1CCC2C(C)(C)C(/C=C\C=O)C3(C)OC213 (stereo not given in full)	72.1 µM	–	> 100 µM	53.2 µM	62 µM	93.9 µM	> 100 µM	> 100 µM	> 100 µM	> 100 µM	> 100 µM	> 100 µM	> 100 µM	> 100 µM	–	–	> 100 µM
CCN(CC)c1ccc(C2Nc3ccc4ccccc4c3C3=C2C(=O)CCC3)cc1 (stereo not given)	> 100 µM	> 100 µM	50.5 µM	–	> 100 µM	–	> 100 µM	> 100 µM	> 100 µM	33.6 µM	> 100 µM	–	46.4 µM	–	> 100 µM	–	> 100 µM
CSc1nn(C)cc2nc(C)nc1-2	–	> 100 µM	> 100 µM	> 100 µM	> 100 µM	–	> 100 µM	> 100 µM	> 100 µM	> 100 µM	> 100 µM	–	–	> 100 µM	> 100 µM	> 100 µM	> 100 µM
N/C(=N\N=C\c1cc(I)cc(I)c1O)NO	56.7 µM	44.5 µM	–	> 100 µM	> 100 µM	–	74.7 µM	8.41 µM	79.3 µM	74.1 µM	> 100 µM	> 100 µM	> 100 µM	> 100 µM	> 100 µM	35.4 µM	> 100 µM
NS(=O)(=O)c1nnc(NC(=O)c2cccc([N+](=O)[O-])c2)s1	> 100 µM	> 100 µM	–	> 100 µM	–	> 100 µM	> 100 µM	> 100 µM	> 100 µM	> 100 µM	–	> 100 µM	> 100 µM	–	> 100 µM	> 100 µM	> 100 µM
CCOC(=O)[C@@H]1ON2O[C@H](OC3CCCCC3c3ccccc3)C[C@H]3OC(=O)[C@@H]1C32 (stereo not given in full)	–	> 100 µM	> 100 µM	> 100 µM	> 100 µM	> 100 µM	> 100 µM	> 100 µM	> 100 µM	> 100 µM	> 100 µM	> 100 µM	–	> 100 µM	> 100 µM	–	> 100 µM
COc1cc(C2c3cc4c(cc3OC(NCCc3ccccc3)C2C)OCO4)cc(OC)c1OC (stereo not given)	17.6 µM	7.43 µM	0.488 µM	4.82 µM	11.1 µM	63.3 µM	15.4 µM	> 22.3 µM	> 20.9 µM	> 51.8 µM	–	0.779 µM	> 47.7 µM	27 µM	> 65.3 µM	0.547 µM	16.9 µM
CC(C)CC1c2[nH]c3ccccc3c2C[C@H]2C(=O)NC(CCCCNC(=O)OC(C)(C)C)C(=O)N12 (stereo not given in full)	78.5 µM	> 100 µM	–	> 100 µM	64.6 µM	89.8 µM	> 100 µM	> 100 µM	> 100 µM	> 100 µM	> 100 µM	72.3 µM	> 100 µM	> 100 µM	77.4 µM	46.9 µM	> 100 µM
NC(N)=NS(=O)(=O)c1ccc(NNC(=O)c2cccc3c(=O)c4ccccc4[nH]c23)cc1	35.4 µM	67.2 µM	> 100 µM	36.1 µM	41.8 µM	79.6 µM	34.3 µM	> 100 µM	87 µM	61.4 µM	–	46.1 µM	83.5 µM	> 100 µM	> 100 µM	62.1 µM	53 µM
Cc1cc(S(=O)(=O)NC2=NCCN2Cc2ccccc2)c(S)cc1Cl	> 100 µM	> 100 µM	> 100 µM	> 100 µM	> 100 µM	–	> 100 µM	> 100 µM	> 100 µM	> 100 µM	–	> 100 µM	> 100 µM	> 100 µM	> 100 µM	> 100 µM	> 100 µM
